# Assay results as given in patent US7189859B2, “Radiolabelled phenylethyl imidazole carboxylic acid ester derivatives” (priority 2003, dated 2007).
# Where two headings read alike, the source gives them in different places.
# How the values were obtained:
# [1] = target: T1, cytochrome P-45011β enzyme system (Rattus norvegicus, UniProt P15393); test: Displacement of [^131I]MTO binding
# T1 construct: Whole adrenals from adult male Wistar rats were homogenized; from tissue; host or cells: whole adrenals of adult male Wistar rats, washed membrane pellet
# T1 sequence (P15393 25-499): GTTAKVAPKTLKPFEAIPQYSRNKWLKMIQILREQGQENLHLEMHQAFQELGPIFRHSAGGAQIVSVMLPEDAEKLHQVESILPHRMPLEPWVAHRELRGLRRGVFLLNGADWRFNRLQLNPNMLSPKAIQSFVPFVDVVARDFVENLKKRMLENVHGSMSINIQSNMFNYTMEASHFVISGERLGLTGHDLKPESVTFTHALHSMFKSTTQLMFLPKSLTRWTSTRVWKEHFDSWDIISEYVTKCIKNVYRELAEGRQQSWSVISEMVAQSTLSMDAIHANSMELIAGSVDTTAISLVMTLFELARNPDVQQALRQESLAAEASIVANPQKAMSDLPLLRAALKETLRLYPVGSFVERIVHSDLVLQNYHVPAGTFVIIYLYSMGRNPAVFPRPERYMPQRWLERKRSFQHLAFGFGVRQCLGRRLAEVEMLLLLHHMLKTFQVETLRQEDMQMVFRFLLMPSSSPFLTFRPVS
# Procedure: Test compounds were incubated at 0.01–100 nM concentrations. Non-specific binding was determined with etomidate (10 μM). […] The filters containing membranes with bound radioligand were measured in a gamma-spectrometer.
# IC50 values (the molar concentration of compound necessary to inhibit binding by 50%) were determined for each test compound by non-linear, least squares regression analysis, using an iterative curve fitting routine.
# [2] = system: steroid 11β-hydroxylation; conditions: human adrenocortical tissue slices; cited from earlier work
# [3] = system: lesions of adrenocortical origin; conditions: clinical; cited from earlier work
# [4] = system: adrenals; test: In vivo evaluation of ^131I-MTO (organ distribution after tail vein injection); conditions: rats
# Procedure: Method: ^131I-MTO was used with a radiochemical purity >99% and a specific activity of 57 GBq/μmol. The radiotracer (0.5–1.1 MBq; […]) was injected into the tail vein of rats (female, 180–220 gram). Groups of four rats were sacrifized at specified times up to 24 hours post injection. The organs were excised and weighed, the radioactivity was measured at constant geometry using a gamma-spectrometer with a Nal(TI)-crystal. The data were expressed as percent of injected dose (ID) per organ and as percent of ID per gram tissue.
# [5] = target: T2, rat adrenal membranes (cytochrome P-450 β-hydroxylase) (Rattus norvegicus, UniProt P15393); test: [^131I]MTO binding to rat adrenal membranes (association, dissociation, saturation); conditions: for observable association rate constant v: data pooled from 7 experiments
# T2 sequence (P15393 25-499): T1 sequence (P15393 25-499)
# Procedure: Whole adrenals from adult male Wistar rats were homogenized in 10 mM K2HPO4/10 mM HEPES (pH 7.1) with a glass/teflon piston (Potter-type). The homogenate was centrifuged at 35.000×g for 10 min, the pellet was resuspended in fresh buffer and centrifuged again. Membranes were washed 2 more times and stored as aliquots at −80° C.
# After incubation, membranes with bound radioligand were isolated by filtration through Whatman GF/B glass fiber filters (presoaked in buffer), followed by 2×4 mL washings with buffer, then filters were measured in a gamma-spectrometer.
# For dissociation experiments, membranes were fully equilibrated with 2 nM radioligand, and the dissociation was initiated by the addition of excess unlabelled 4-iodo-MTO and stepwise filtration at 15 sec intervals.
# For saturation studies 2–100 nM 4-iodo-MTO carrier was used. See summary in FIG. 1. […] Incubation for 30 minutes using 10 mM K2HPO4/10 mM HEPES, 150 mM NaCl (pH 7.1).
# [6] = read-out: IC50 (inhibition of [^131I]MTO binding), rat adrenal membranes
smiles,measurement,setting,value
CCOC(=O)c1cncn1[C@H](C)c1ccccc1 [etomidate],IC50,[1],1.1 nM
same,inhibition of steroid 11β-hydroxylation,[2],block the conversion of 11-deoxycortisol to cortisol and of 11-deoxycorticosterone (DOC) to corticosterone and aldosterone
COC(=O)c1cncn1C(C)c1ccccc1 (stereo not drawn) [metomidate],IC50,[1],3.7 nM
same,inhibition of steroid 11β-hydroxylation,[2],equally potent inhibitor
COC(=O)c1cncn1C(C)c1ccccc1 (stereo not drawn) [[O-methyl-^11C]metomidate],"uptake in lesions of adrenocortical origin, including adenomas",[3],high uptake
same,uptake in lesions of non-adrenocortical origin,[3],very low uptake
"COC(=O)c1cncn1[C@H](C)c1ccc([131I])cc1 [[^131I]MTO, (R)-3-[1-(4-[^131I]iodophenyl)ethyl]-3H-imidazole-4-carboxylic acid methyl ester]",duration of radioactivity plateau in the adrenals,[4]; intravenous (tail vein),2 h
same,route of elimination,[4]; intravenous (tail vein),eliminated both by hepatobiliary and by renal excretion
same,specific uptake in the adrenals,[4]; intravenous (tail vein),approximately 10 % ID/g tissue
same,time post injection up to which renal activity is increasing,[4]; renal activity attributed to ^131I-ETO-acid,up to 4 hours
same,observable association rate constant v,[5]; ligand concentration 2 nM 4-iodo-MTO,0.65 min⁻¹
same,observable association rate constant v,[5]; ligand concentration 4 nM 4-iodo-MTO,1.23 min⁻¹
same,observable association rate constant v,[5]; ligand concentration 11 nM 4-iodo-MTO,1.34 min⁻¹
"COC(=O)c1cncn1[C@H](C)c1ccc(I)cc1 [[^131I]MTO, (R)-3-[1-(4-[^131I]iodophenyl)ethyl]-3H-imidazole-4-carboxylic acid methyl ester]",Kd,"[5]; saturation analysis, 2–100 nM 4-iodo-MTO carrier, 30 minutes incubation, pH 7.1, (15)",7.4 ± 2.8 nM
"COC(=O)c1cncn1[C@H](C)c1ccc(I)cc1 [Example 4-iodo-MTO, (R)-methyl 3-[1-(4-iodophenyl)ethyl]-3H-imidazole-4-carboxylate]",IC50,[1],9 nM
C[C@H](c1ccccc1)n1cncc1C(=O)OCCF [FETO],IC50,[1]; [6],3 nM
CC(C)(C(=O)c1cccnc1)c1cccnc1 [Metyrapone],IC50,[1],1200 nM
CC(c1ccccc1)n1cncc1C(=O)O (stereo not drawn) [ETO-acid],IC50,[1]; [6],123000 nM
